Test results from patent US12054457B2, “Polymorphs of (2S,5R)-5-(2-chlorophenyl)-1-(2′-methoxy-[1,1′-biphenyl]-4-carbonyl)pyrrolidine-2-carboxylic acid and preparation processes thereof” (EPICS THERAPEUTICS, priority 2022, dated 2024).
Where a name gives a salt, the structure may show the parent alone. Each block holds one compound with its values, some of them ahead of it.

What was measured:
Assay type in all cases: physicochemical
[1] = Hygroscopicity: weight gain on storage at fixed relative humidity
Source text: The previously described solid forms of (2S,5R)-5-(2-chlorophenyl)-1-(2′-methoxy-[1,1′-biphenyl]-4-carbonyl)pyrrolidine-2-carboxylic acid, i.e. the amorphous free acid and the corresponding Na salt, both disclosed in WO2021/250174, are hygroscopic.

[2] = Hygroscopicity by dynamic vapor sorption (DVS)
Description: The determination of the hygroscopicity of crystalline forms I and II was also evaluated by dynamic vapor sorption (DVS).
The analyses were performed on a Surface Measurements System DVS Intrinsic. The samples were placed in an open aluminum pan. The analyses were performed at 25° C. Relative humidity (RH) was scanned between 0% RH and 95% RH, with 10% RH steps (40-0-95-0-95). The stability criterion was a variation in mass lower than 0.002% on a 5 min. window, with a minimum step time of 10 min and a maximum of 100 min.

[3] = Thermal gravimetric analysis (TGA); conditions: temperature range 10° C.-200° C., 10° C./min, nitrogen purge
Description: The thermal gravimetric analysis (TGA) experiments were performed on a Mettler Toledo TGA/DSC3+ apparatus. The samples (about 10-30 mg) were placed in a 100 μL aluminum sample pan and crimped with a punctured cover. […]

[4] = Competitive slurry test between form I and form II in isopropyl alcohol
Description: A competitive slurry test between form I and form II of compound (1) was carried out at 10° C., 20° C., 25° C., 30° C. and 40° C. in isopropyl alcohol.
Method. Suspensions of compound (1) under form II, in isopropyl alcohol, were first prepared and equilibrated for 30 min at each of the temperatures to be studied. About 800 μL of the saturated solutions were then sampled, filtered through a 0.2 μm HPTFE filter, and added into a vial containing 50 mg of form I and 50 mg of form II, equipped with a magnetic rod. After 10 seconds, a first sample of the solid phase is taken and analyzed by XRPD to identify the solid phase(s) present. Additional sampling are also performed until only 1 solid phase remains.

[5] = Cross-seeding tests in water and n-heptane; conditions: 25° C., form II suspension seeded with form I
Description: Cross-seeding tests were carried out in water and n-heptane.
Method. Saturated solutions of form II were prepared at 25° C. in water and in n-heptane. The suspensions were then seeded with form I after 45 minutes, and kept under stirring at 25° C. The solid phases in suspensions were then periodically controlled by XRPD.

[6] = Thermodynamic stability over time
[7] = Competitive slurry test between form I and form II in n-heptane; conditions: 10° C., 20° C., 25° C., 30° C. and 40° C.
Description: A competitive slurry test between form I and form II of compound (1) was carried out at 10° C., 20° C., 25° C., 30° C. and 40° C. in n-heptane.
Method. About 1 mL of n-heptane was added into vials containing 40 mg of form I and 40 mg of form II, equipped with a magnetic rod. After 10 seconds, a first sample of the solid phase is taken and analyzed by XRPD to identify the solid phase(s) present. Additional sampling are also performed until only 1 solid phase remains.

weight gain ([1]; 40% relative humidity, after 14 h): 7 wt %
weight gain ([1]; 70% relative humidity, 22° C., after 14 h): 20 wt %
SMILES: COc1ccccc1-c1ccc(C(=O)N2[C@@H](c3ccccc3Cl)CC[C@H]2C(=O)O)cc1 [Na salt, (2S,5R)-5-(2-chlorophenyl)-1-(2′-methoxy-[1,1′-biphenyl]-4-carbonyl)pyrrolidine-2-carboxylic acid]

weight gain ([1]; 40% relative humidity, after 2 days): 3 wt %
weight gain ([1]; 70-75% relative humidity, room temperature, after 14 h): 8 wt %
hygroscopicity (in words) ([1]; previously described solid forms): hygroscopic
SMILES: COc1ccccc1-c1ccc(C(=O)N2[C@@H](c3ccccc3Cl)CC[C@H]2C(=O)O)cc1 [amorphous free acid, (2S,5R)-5-(2-chlorophenyl)-1-(2′-methoxy-[1,1′-biphenyl]-4-carbonyl)pyrrolidine-2-carboxylic acid]

weight gain ([1]; 80% relative humidity, 25° C., after 10 days): 0.09 wt %
hygroscopicity (conclusion in words) ([2]; DVS and humidity exposure): non-hygroscopic
weight loss on first desorption stage ([2]; DVS, 25° C., 40% RH to 0% RH): −0.1%
weight gain at the end of the step at 70% RH ([2]; DVS, 25° C., first sorption stage (0% RH to 95% RH)): +0.1%
maximum weight gain at 95% RH ([2]; DVS, 25° C., first sorption stage (0% RH to 95% RH), listed as crystalline form I): +0.7%
weight loss (TGA) ([3]; listed as crystalline form I): −0.14%
relative stability of the forms ([4]; 10° C., 20° C., 25° C., 30° C. and 40° C.): more stable than form II
relative stability of the forms [5]: greater stability of form I vs. form II
time for which the form is thermodynamically stable [6]: at least 6 months
SMILES: COc1ccccc1-c1ccc(C(=O)N2[C@@H](c3ccccc3Cl)CC[C@H]2C(=O)O)cc1 [form I, (2S,5R)-5-(2-chlorophenyl)-1-(2′-methoxy-[1,1′-biphenyl]-4-carbonyl)pyrrolidine-2-carboxylic acid]

maximum weight gain at 95% RH ([2]; DVS, 25° C., first sorption stage (0% RH to 95% RH), listed as crystalline form II): +0.4%
weight loss (TGA) ([3]; listed as crystalline form II): −0.2%
solid phase conversion (XRPD) [7]: conversion of form II into form I
SMILES: COc1ccccc1-c1ccc(C(=O)N2[C@@H](c3ccccc3Cl)CC[C@H]2C(=O)O)cc1 [form II, (2S,5R)-5-(2-chlorophenyl)-1-(2′-methoxy-[1,1′-biphenyl]-4-carbonyl)pyrrolidine-2-carboxylic acid]
solid phase present in suspension (XRPD) ([4]; 10-40° C., first sampling after 10 seconds): not visible anymore in the suspensions since the first sampling
